Test results taken from patent US10865216B2, “Tricyclic Gyrase inhibitors” (MERCK SHARP & DOHME CORP., priority 2012, dated 2020).
Values after ≈ are worked out from the molar mass of the structure shown. Where two headings read alike, the source gives them in different places.

Tests used:
S. aureus ATCC 13709 = assay: MIC, S. aureus ATCC 13709; assay type: cell-based; settings: for MIC: Staphylococcus aureus
E. coli ATCC 25922 = assay: MIC, E. coli ATCC 25922; assay type: cell-based; settings: for MIC: Escherichia coli
[1] = S. aureus, Alamar Blue read after overnight incubation at 35° C.
[2] = E. coli, Alamar Blue read after overnight incubation at 35° C.
[3] = ATCC13709, S. aureus, Alamar Blue read after overnight incubation at 35° C., read-out: MIC Sa
[4] = ATCC25922, E. coli, Alamar Blue read after overnight incubation at 35° C., read-out: MIC Ec
[5] = ATCC13709, Table 16, new R4 substituents, read-out: SA MIC
[6] = ATCC25922, Table 16, new R4 substituents, EC8 not defined, read-out: EC8 MIC

MIC Sa (S. aureus ATCC 13709; [1]) [µg/mL]	MIC Ec (E. coli ATCC 25922; [2]) [µg/mL]	Compound	further results
≤0.5	≤0.5	CNc1cc(F)cc2c1[nH]c1nc(Oc3cncc(C#N)c3)nc(N3CC4C(N)C4C3)c12 (centres unmarked) [Compound 4.050]	
1 (≈ 2.28 µM)	>64	COc1cccc2c1[nH]c1nc(Oc3cnc4cccnc4c3)nc(N3CC4C(N)C4C3)c12 (centres unmarked) [Compound 2.14]	
≤0.5	≤0.5	CNc1cc(F)cc2c1[nH]c1nc(Oc3cnc(C)nc3)nc(N3CC4CCNC4C3)c12 (centres unmarked) [Compound 4.094]	
		CNc1cc(F)cc2c1[nH]c1nc(Nc3cccnc3)nc(N3C[C@H]4CC3C[C@H]4N)c12	SA MIC (S. aureus ATCC 13709; Table 13, L = NH): ≤ 0.5 µg/mL; EC MIC (E. coli ATCC 25922; Table 13, L = NH): ≤ 0.5 µg/mL
		CNc1cc(F)c2c3c1[nH]c1nc(Oc4cnc(C)nc4)nc(c13)-c1ccccc1NC2	SA MIC (S. aureus ATCC 13709; Table 12, Z is C and connected to R4): ≤ 0.5 µg/mL; EC8 MIC (E. coli ATCC 25922; Table 12, Z is C and connected to R4, EC8 not defined): ≤ 0.5 µg/mL
		CNc1cc(F)cc2c1[nH]c1nc(Cc3cnc(C)nc3)nc(N3CC4(CCC4N)C3)c12 (centres unmarked)	SA MIC (S. aureus ATCC 13709; Table 11, compounds wherein L = CH2): ≤ 0.5 µg/mL; EC8 MIC (E. coli ATCC 25922; Table 11, L = CH2, EC8 not defined): 1 µg/mL
16 (≈ 38.1 µM)	16 (≈ 38.1 µM)	Cc1ncc(Oc2nc(N3CC(N)C4(CC4)C3)c3c(n2)[nH]c2c(N)cc(F)cc23)cn1 (centres unmarked) [Compound 2.9]	
≤0.5	≤0.5	CNc1cc(F)cc2c1[nH]c1nc(Oc3cnc(C)nc3)nc(N3CC(N)C3)c12 [Compound 4.138]	
≤0.5	2 (≈ 4.41 µM)	CNc1cc(F)cc2c1[nH]c1nc(Oc3cncc(Cl)c3)nc(N3CC(N)C4(CC4)C3)c12 (centres unmarked) [Compound 4.273]	
		CNc1cc(F)cc2c1[nH]c1nc(Oc3cnc([C@@H](C)O)nc3)nc(N3CC4(CC[C@H]4N)C3)c12 [Compound 10.59]	MIC Sa (S. aureus ATCC 13709; Table 18, Sa): ≤ 0.5 µg/mL; MIC Ec (E. coli ATCC 25922; Table 18, Ec): ≤ 0.5 µg/mL
≤0.5	1 (≈ 1.99 µM)	CNc1cc(F)cc2c1[nH]c1nc(Oc3ccc4sc(C)nc4c3)nc(N3CC4CC(N)CC4C3)c12 (centres unmarked) [Compound 4.321]	
		CNc1cccc2c1[nH]c1nc(Oc3cnc(C)nc3)cc(N3CC[C@@H](NCCC#N)C3)c12 [Compound 3.10]	MIC (S. aureus ATCC 13709; [3]): 32 µg/mL (≈ 72.3 µM); MIC (E. coli ATCC 25922; [4]): > 64 µg/mL
≤0.5	≤0.5	CNc1cc(F)cc2c1[nH]c1nc(Oc3cncc(C)c3)nc(N3CC4CC(N)C4C3)c12 (centres unmarked) [Compound 4.303]	
4 (≈ 9.08 µM)	>32	Cc1cccc2c1[nH]c1nc(Sc3cnc4nccnc4c3)nc(N3CC4C(N)C4C3)c12 (centres unmarked) [Compound 1.07]	
≤0.5	2 (≈ 4.47 µM)	CNc1cc(F)cc2c1[nH]c1nc(Oc3cnc4c(c3)ncn4C)nc(N3CC[C@@H](N)C3)c12 [Compound 4.225]	
≤0.5	≤0.5	CNc1cc(F)cc2c1[nH]c1nc(Oc3cnc(C)nc3)nc(N3CC4CCNC4C3)c12 (centres unmarked) [Compound 4.156]	
≤0.5	≤0.5	CNc1cc(F)cc2c1[nH]c1nc(Oc3cnc(C4CCC4)nc3)nc(N3CC(N)C4(CC4)C3)c12 (centres unmarked) [Compound 4.287]	
		CNc1cc(F)cc2c1[nH]c1nc(Oc3cnc(C)nc3)nc(N3CCC4(CC3)CC4CN)c12 (centres unmarked) [Compound 10.80]	MIC Sa (S. aureus ATCC 13709; Table 18, Sa): 0.06 µg/mL (≈ 0.13 µM); MIC Ec (E. coli ATCC 25922; Table 18, Ec): 2 µg/mL (≈ 4.32 µM)
≤0.5	≤0.5	CCc1ncc(Oc2nc(N3CC4C(N)C4C3)c3c(n2)[nH]c2c(NC)cc(F)cc23)cn1 (centres unmarked) [Compound 4.258]	
		CNc1cc(F)cc2c1[nH]c1nc(Oc3cnc4ccoc4c3)nc(N3CCC(C)(CN)C3)c12 (centres unmarked)	MIC (S. aureus ATCC 13709; [5]): ≤ 0.5 µg/mL; MIC (E. coli ATCC 25922; [6]): 0.5 µg/mL (≈ 1.08 µM)
		CNc1cc(F)cc2c1[nH]c1nc(Oc3cnc(C)nc3)nc(N3CC(N)C(C(=O)O)C3)c12 (centres unmarked)	MIC (S. aureus ATCC 13709; [5]): > 16 µg/mL; MIC (E. coli ATCC 25922; [6]): > 16 µg/mL
		CNc1cccc2c1[nH]c1nc(Oc3cnc(C)nc3)nc(Oc3cnc(C)nc3)c12 [Compound 8.2]	MIC (S. aureus ATCC 13709; [3]): 1 µg/mL (≈ 2.41 µM); MIC (E. coli ATCC 25922; [4]): > 32 µg/mL
≤0.5	≤0.5	CCOC(=O)c1ncc(Oc2nc(N3C[C@H](N)C4(CC4)C3)c3c(n2)[nH]c2c(NC)cc(F)cc23)cn1 [Compound 4.402]	
		CNc1cccc2c1[nH]c1nc(Oc3cncnc3)cc(N3CCC[C@@H](N)C3)c12 [Compound 3.16]	MIC (S. aureus ATCC 13709; [3]): 4 µg/mL (≈ 10.3 µM); MIC (E. coli ATCC 25922; [4]): 4 µg/mL (≈ 10.3 µM)
≤0.5	≤0.5	CNc1cc(F)cc2c1[nH]c1nc(Oc3cnc(C)nc3)nc(N3CC4CNC4C3)c12 (centres unmarked) [Compound 4.067]	
≤0.5	1 (≈ 2.23 µM)	CCc1ncc(Oc2nc(N3CC4CC4(CN)C3)c3c(n2)[nH]c2c(NC)cc(F)cc23)cn1 (centres unmarked) [Compound 4.261]	
		CNc1cccc2c1[nH]c1nc(Oc3cnc(N)nc3)cc(N3CC4C(N)C4C3)c12 (centres unmarked) [Compound 3.32]	MIC (S. aureus ATCC 13709; [3]): ≤ 0.5 µg/mL; MIC (E. coli ATCC 25922; [4]): 2 µg/mL (≈ 4.97 µM)
≤0.5	1 (≈ 2.29 µM)	CNc1cc(F)cc2c1[nH]c1nc(Oc3cnc(C)nc3)nc(N3CC4CONC4C3)c12 (centres unmarked) [Compound 4.122]	
